Where two headings read alike, the source gives them in different places.

This data set in a line: Pharmacokinetic evaluation, beagle test. The data set is classed as in vivo. The following applies: beagles; for AUC(0-t): read-out: Area under curve AUC0-t; for half-life: read-out: Half-life T1/2 (converted); for Cmax: read-out: Plasma concentration Cmax. The procedure: With beagles as test animals, the plasma concentrations of the compound of Example 26-1 and Comparative Example 1 were determined by LC/MS/MS at different time points after intragastric (i.g.)/intravenous (i.v.) administration to beagles. The pharmacokinetic behavior of the compound of the present disclosure in beagles was studied and its pharmacokinetic profile was evaluated.
The compound of Example 26-1 and Comparative Example 1 (see patent WO2018102725A1, Example 411), whose structure is shown below:
Sixteen beagles, of which half were male and half female, were evenly divided into 4 groups. The beagles were provided by Shanghai Medicilon Inc. The 4 groups were fasted overnight and then dosed intragastrically and intravenously.
Certain amounts of the compound of Example 26-1 and the compound of Comparative Example 1 were weighed out and mixed with 5% (v/v) DMSO+30% (v/v) PG+30% (v/v) PEG400+35% (v/v) normal saline to make 0.4 mg/mL clear solutions (for the intragastric administration groups) and 0.25 mg/mL clear solutions (for the intravenous administration groups).
The intragastric administration groups: the dose was 2.0 mg/kg, and the volume was 5.0 mL/kg.
The intravenous administration groups: the dose was 0.5 mg/kg, and the volume was 2.0 mL/kg.
The intragastric administration group: Blood (1.0 mL) was collected from the jugular vein or the forelimb vein into EDTA-K2 anticoagulation tubes before administration and 0.25 h, 0.5 h, 1.0 h, 2.0 h, 4.0 h, 6.0 h, 8.0 h, 12.0 h and 24.0 h after administration and centrifuged at 10,000 rpm for 5 min (4° C.). The plasma was separated within 1 h and stored at −80° C. before analysis. The process from blood collection to centrifugation was performed in an ice bath. Three hours after administration, feeding was resumed.
The intravenous administration groups: Blood was collected before administration and 5 min, 0.25 h, 0.5 h, 1.0 h, 2.0 h, 4.0 h, 8.0 h, 12.0 h and 24 h after administration and processed as in the intragastric administration groups.
The plasma concentrations of the test compounds were determined after administration of different concentrations of the test compounds to beagles: plasma samples (50 μL) were collected from beagles at various time points after administration, and proteins were precipitated with 500 μL of methanol (containing 100 ng/mL internal standard Verapamil) for each of the samples; the mixtures were vortexed for 1 min and centrifuged at 18,000 g for 7 min. 500 μL of supernatant was transferred to a 96-well plate. 1 μL of supernatant was collected for LC/MS/MS analysis.

Where [1] appears, read: both sexes, beagle, dog, plasma, iv, i.v., 0.5 mg/kg.
[2] abbreviates: both sexes, beagle, dog, plasma, po, i.g., 2.0 mg/kg.

With `O=C1CCC(N2Cc3cc(N4CCN(CC5CCN(c6ccc([C@@H]7c8ccc(O)cc8CC[C@@H]7c7ccccc7)cc6)CC5)CC4)ccc3C2=O)C(=O)N1` (stereo partly drawn) [Comparative Example 1, reference compound], the “Clearance CL/F” value (i.v., 0.5 mg/kg) came to 2.8 mL/min/kg. Under setting [1], the AUC(0-t) was 2680 ng·h/mL, the half-life is 8.1 h and the Cmax was determined as 600 ng/mL. Also, under “both sexes, beagle, dog, plasma, po, i.g., 2.0 mg/kg, read-out: Apparent distribution volume Vz/F”, the Vd/F was 5.5 L/kg. For the same molecule, under setting [2], the AUC(0-t) worked out at 4050 ng·h/mL, the half-life was 9 h and the Cmax turned out to be 324 ng/mL. The CL/F (both sexes, beagle, dog, plasma, po, i.g., 2.0 mg/kg, read-out: Clearance CL/F) is 7.3 mL/min/kg.

(Values after patent US20250099596A1, “TETRAHYDRONAPHTHALENE COMPOUND, AND PREPARATION METHOD THEREFOR AND USE THEREOF IN MEDICINE” (Jiangsu Hengrui Pharmaceuticals Co., Ltd., priority 2021, published 2025).)
